Data reported in patent publication US20260285850A1, “SUBSTITUTED OXAZOLIDINONES AND IMIDAZOLINONES AS HERBICIDES” (FMC CORPORATION, priority 2023, published 2026).

Assays:
Format in all cases: in vivo
[1] = system: barnyardgrass (Echinochloa crus-galli); experiment: Test A preemergence soil spray, visual injury rating 0-100; conditions: 10 days, 0 = no effect, 100 = complete control
Summary of the method: (§1)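 Directed preemergence spray onto seeded soil or postemergence spray onto 2-10 cm plants (loam plus sand); compound carried in surfactant-containing non-phytotoxic solvent. Injury rated by eye after 10 d greenhouse growth; 0 = no effect, 100 = complete control.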

[2] = system: blackgrass (Alopecurus myosuroides); experiment: as above; conditions: 10 days, 0 = no effect, 100 = complete control
Summary of the method: as §1

corn (Zea mays) [3] = experiment: as above; conditions: 10 days, 0 = no effect, 100 = complete control
Summary of the method: as §1

[4] = system: green foxtail (Setaria viridis); experiment: as above; conditions: 10 days, 0 = no effect, 100 = complete control
Summary of the method: as §1

kochia (Bassia scoparia) [5] = experiment: as above; conditions: 10 days, 0 = no effect, 100 = complete control
Summary of the method: as §1

[6] = system: oat, wild (wild oat, Avena fatua); experiment: as above; conditions: 10 days, 0 = no effect, 100 = complete control
Summary of the method: as §1

[7] = system: palmer (palmer amaranth, palmer pigweed, Amaranthus palmeri); experiment: as above; conditions: 10 days, 0 = no effect, 100 = complete control
Summary of the method: as §1

[8] = system: ragweed (common ragweed, Ambrosia artemisiifolia); experiment: as above; conditions: 10 days, 0 = no effect, 100 = complete control
Summary of the method: as §1

[9] = system: ryegrass, Italian (italian ryegrass, Lolium multiflorum); experiment: as above; conditions: 10 days, 0 = no effect, 100 = complete control
Summary of the method: as §1

soybean (Glycine max) [10] = experiment: as above; conditions: 10 days, 0 = no effect, 100 = complete control
Summary of the method: as §1

[11] = system: wheat (Triticum aestivum); experiment: as above; conditions: 10 days, 0 = no effect, 100 = complete control
Summary of the method: as §1

[12] = system: barnyardgrass (Echinochloa crus-galli); experiment: Test A postemergence application, visual injury rating 0-100; conditions: 10 days
Summary of the method: as §1

[13] = system: blackgrass (Alopecurus myosuroides); experiment: as above; conditions: 10 days
Summary of the method: as §1

corn (Zea mays) [14] = experiment: as above; conditions: 10 days
Summary of the method: as §1

[15] = system: galium (catchweed bedstraw, Galium aparine); experiment: as above; conditions: 10 days
Summary of the method: as §1

[16] = system: green foxtail (Setaria viridis); experiment: as above; conditions: 10 days
Summary of the method: as §1

[17] = system: horseweed (Erigeron canadensis); experiment: as above; conditions: 10 days
Summary of the method: as §1

kochia (Bassia scoparia) [18] = experiment: as above; conditions: 10 days
Summary of the method: as §1

[19] = system: oat, wild (wild oat, Avena fatua); experiment: as above; conditions: 10 days
Summary of the method: as §1

[20] = system: palmer (palmer amaranth, palmer pigweed, Amaranthus palmeri); experiment: as above; conditions: 10 days
Summary of the method: as §1

[21] = system: ragweed (common ragweed, Ambrosia artemisiifolia); experiment: as above; conditions: 10 days
Summary of the method: as §1

[22] = system: ryegrass, Italian (italian ryegrass, Lolium multiflorum); experiment: as above; conditions: 10 days
Summary of the method: as §1

soybean (Glycine max) [23] = experiment: as above; conditions: 10 days
Summary of the method: as §1

[24] = system: wheat (Triticum aestivum); experiment: as above; conditions: 10 days
Summary of the method: as §1

[25] = system: barnyardgrass (Echinochloa crusgalli); experiment: Test B flooded paddy test, visual plant response rating 0-100; conditions: 250 g ai/ha, Flood, applied to paddy water, evaluated after 13 days
Summary of the method: (§2)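 Visual evaluation after 13 days. Water-applied treatment, 3 cm flood depth held constant, plants at 2-leaf stage at treatment.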

[26] = system: ducksalad (Heteranthera limosa); experiment: as above; conditions: 250 g ai/ha, Flood, applied to paddy water, evaluated after 13 days
Summary of the method: as §2

rice (Oryza sativa) = experiment: as above; conditions: 250 g ai/ha, Flood, applied to paddy water, evaluated after 13 days
Summary of the method: as §2

[27] = system: sedge, umbrella (small-flower umbrella sedge, Cyperus difformis); experiment: as above; conditions: 250 g ai/ha, Flood, applied to paddy water, evaluated after 13 days
Summary of the method: as §2

[28] = 31 g ai/ha, postemergence, 0 = no effect, 100 = complete control
[29] = Postemergence, 125 g ai/ha, 0 is no effect, 100 is complete control

## COC(=O)C1CC(NC(=O)C2(C)CN(c3cc(F)cc(F)c3)C(=O)O2)CO1 (stereo not shown) [Compound 29]
[1]; 31 g ai/ha
  Barnyardgrass plant response rating (0-100): 0
[1]; 125 g ai/ha
  Barnyardgrass plant response rating (0 to 100 scale): 20
[2]; 31 g ai/ha
  Blackgrass plant response rating (0-100): 0
[2]; 125 g ai/ha
  Blackgrass plant response rating (0 to 100 scale): 50
Corn (Zea mays) [3]; 31 g ai/ha
  Corn plant response rating (0-100): 0
Corn (Zea mays) [3]; 125 g ai/ha
  Corn plant response rating (0 to 100 scale): 0
[4]; 31 g ai/ha
  Foxtail, Green plant response rating (0-100): 0
[4]; 125 g ai/ha
  Foxtail, Green plant response rating (0 to 100 scale): 0
Kochia (Bassia scoparia) [5]; 31 g ai/ha
  Kochia plant response rating (0-100): 0
Kochia (Bassia scoparia) [5]; 125 g ai/ha
  Kochia plant response rating (0 to 100 scale): 0
[6]; 31 g ai/ha
  Oat, Wild plant response rating (0-100): 0
[6]; 125 g ai/ha
  Oat, Wild plant response rating (0 to 100 scale): 60
[7]; 31 g ai/ha
  Amaranth, Palmer plant response rating (0-100): 0
[7]; 125 g ai/ha
  Amaranth, Palmer plant response rating (0 to 100 scale): 0
[8]; 31 g ai/ha
  Ragweed plant response rating (0-100): 0
[8]; 125 g ai/ha
  Ragweed plant response rating (0 to 100 scale): 0
[9]; 31 g ai/ha
  Ryegrass, Italian plant response rating (0-100): 0
[9]; 125 g ai/ha
  Ryegrass, Italian plant response rating (0 to 100 scale): 30
Soybean (Glycine max) [10]; 31 g ai/ha
  Soybean plant response rating (0-100): 0
Soybean (Glycine max) [10]; 125 g ai/ha
  Soybean plant response rating (0 to 100 scale): 0
[11]; 31 g ai/ha
  Wheat plant response rating (0-100): 0
[11]; 125 g ai/ha
  Wheat plant response rating (0 to 100 scale): 80
[12]; [28]
  Barnyardgrass plant response rating (0-100): 10
[12]; [29]
  Barnyardgrass plant response rating (0 to 100 scale): 80
[13]; [28]
  Blackgrass plant response rating (0-100): 90
[13]; [29]
  Blackgrass plant response rating (0 to 100 scale): 90
Corn (Zea mays) [14]; [28]
  Corn plant response rating (0-100): 0
Corn (Zea mays) [14]; [29]
  Corn plant response rating (0 to 100 scale): 70
[15]; [28]
  Galium plant response rating (0-100): 50
[15]; [29]
  Galium plant response rating (0 to 100 scale): 80
[16]; [28]
  Foxtail, Green plant response rating (0-100): 0
[16]; [29]
  Foxtail, Green plant response rating (0 to 100 scale): 80
[17]; [28]
  Horseweed plant response rating (0-100): 0
[17]; [29]
  Horseweed plant response rating (0 to 100 scale): 20
Kochia (Bassia scoparia) [18]; [28]
  Kochia plant response rating (0-100): 20
Kochia (Bassia scoparia) [18]; [29]
  Kochia plant response rating (0 to 100 scale): 40
[19]; [28]
  Oat, Wild plant response rating (0-100): 80
[19]; [29]
  Oat, Wild plant response rating (0 to 100 scale): 90
[20]; [28]
  Amaranth, Palmer plant response rating (0-100): 0
[20]; [29]
  Amaranth, Palmer / Pigweed, Palmer plant response rating (0 to 100 scale): 60
[21]; [28]
  Ragweed plant response rating (0-100): 30
[21]; [29]
  Ragweed plant response rating (0 to 100 scale): 30
[22]; [28]
  Ryegrass, Italian plant response rating (0-100): 50
[22]; [29]
  Ryegrass, Italian plant response rating (0 to 100 scale): 90
Soybean (Glycine max) [23]; [28]
  Soybean plant response rating (0-100): 0
Soybean (Glycine max) [23]; [29]
  Soybean plant response rating (0 to 100 scale): 50
[24]; [28]
  Wheat plant response rating (0-100): 80
[24]; [29]
  Wheat plant response rating (0 to 100 scale): 90
[25]
  Plant response rating, Barnyardgrass (0 to 100 scale, 0 is no effect and 100 is complete control): 0
[26]
  Plant response rating, Ducksalad (0 to 100 scale, 0 is no effect and 100 is complete control): 0
Rice (Oryza sativa)
  Plant response rating, Rice (0 to 100 scale, 0 is no effect and 100 is complete control): 0
[27]
  Plant response rating, Sedge, Umbrella (0 to 100 scale, 0 is no effect and 100 is complete control): 0
